Measured values: ChEMBL document CHEMBL3813609, “Efficient protein knockdown of HaloTag-fused proteins using hybrid molecules consisting of IAP antagonist and HaloTag ligand” (Bioorg Med Chem, 2016)
Calls of active or inactive are those of the source. The rule behind the calls is not given here. Where a SMILES comes first, the peptide text is derived from it. [ ]: non-standard residue; d: D form. The star is where a group is joined. Dip = N[C@H](C(=O)O)C(c1ccccc1)c1ccccc1; X2 = ClCCCCCCOCCOCCOCCOCCOCCN*; Chg = N[C@H](C(=O)O)C1CCCCC1; NMeA = CN[C@@H](C)C(=O)O; X1 = ClCCCCCCOCCOCCOCCN*

Key:
Format in all cases: cell-based
[1] = target: Tumor necrosis factor (Homo sapiens) (UniProt P01375); assay: Induction of degradation of halo-tagged human TNFalpha expressed in HEK293 cells at 1 uM after 6 hrs by Western blot analysis
[2] = target: Tumor necrosis factor (Homo sapiens) (UniProt P01375); assay: Increase in level of halo-tagged human TNFalpha expressed in HEK293 cells at 0.1 to 0.3 uM after 6 hrs by Western blot analysis
HEK293 [3] = assay: Increase in level of bacterial haloalkane dehalogenase expressed in HEK293 cells at 0.1 to 0.3 uM after 6 hrs by Western blot analysis; settings: Bacteria
[4] = target: Cell division control protein 42 homolog (Homo sapiens) (UniProt P60953); assay: Induction of degradation of halo-tagged human Cdc42 expressed in HEK293 cells at 1 uM after 6 hrs by Western blot analysis
HEK293 [5] = assay: Induction of degradation of bacterial haloalkane dehalogenase expressed in HEK293 cells at 1 uM after 6 hrs by Western blot analysis; settings: Bacteria
[6] = target: Cyclic AMP-responsive element-binding protein 1 (Homo sapiens) (UniProt P16220); assay: Induction of degradation of halo-tagged CREB1 (unknown origin) expressed in HEK293 cells at 10 uM by Western blot analysis
[7] = target: Transcription factor Jun (Homo sapiens) (UniProt P05412); assay: Induction of degradation of halo-tagged c-jun (unknown origin) expressed in HEK293 cells assessed as time required to reduce level of halo-tagged c-jun at 10 uM by Western blot analysis
[8] = target: Tumor necrosis factor (Homo sapiens) (UniProt P01375); assay: Induction of degradation of halo-tagged human TNFalpha expressed in HEK293 cells after 6 hrs by Western blot analysis
[9] = target: Tumor necrosis factor (Homo sapiens) (UniProt P01375); assay: Induction of degradation of halo-tagged human TNFalpha expressed in HEK293 cells at 1 uM after 6 hrs by Western blot analysis in presence of proteasome inhibitor MG132
[10] = target: Tumor necrosis factor (Homo sapiens) (UniProt P01375); assay: Induction of degradation of halo-tagged TNFalpha (unknown origin) expressed in HEK293 cells at 10 uM after 24 hrs by Western blot analysis
[11] = target: Tumor necrosis factor (Homo sapiens) (UniProt P01375); assay: Induction of degradation of halo-tagged human TNFalpha expressed in HEK293 cells at 30 uM after 6 hrs by Western blot analysis

Chain of Cyclic AMP-responsive element-binding protein 1 (Homo sapiens) (P16220 whole entry): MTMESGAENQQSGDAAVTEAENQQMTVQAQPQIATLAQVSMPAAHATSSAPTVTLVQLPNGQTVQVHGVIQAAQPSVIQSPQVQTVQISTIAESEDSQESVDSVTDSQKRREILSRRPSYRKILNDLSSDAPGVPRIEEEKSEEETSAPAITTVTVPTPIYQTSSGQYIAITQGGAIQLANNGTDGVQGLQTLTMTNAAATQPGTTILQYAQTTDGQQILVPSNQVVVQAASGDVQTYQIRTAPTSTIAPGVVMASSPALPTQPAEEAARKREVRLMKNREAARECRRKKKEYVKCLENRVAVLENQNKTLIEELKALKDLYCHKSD
Chain of Tumor necrosis factor (Homo sapiens) (P01375 whole entry): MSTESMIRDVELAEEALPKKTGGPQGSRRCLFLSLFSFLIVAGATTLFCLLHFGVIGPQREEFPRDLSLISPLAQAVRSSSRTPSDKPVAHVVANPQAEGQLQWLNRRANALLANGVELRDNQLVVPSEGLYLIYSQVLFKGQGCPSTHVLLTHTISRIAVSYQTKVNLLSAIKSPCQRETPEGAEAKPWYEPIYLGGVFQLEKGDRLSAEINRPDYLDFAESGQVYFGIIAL
Chain of Transcription factor Jun (Homo sapiens) (P05412 whole entry): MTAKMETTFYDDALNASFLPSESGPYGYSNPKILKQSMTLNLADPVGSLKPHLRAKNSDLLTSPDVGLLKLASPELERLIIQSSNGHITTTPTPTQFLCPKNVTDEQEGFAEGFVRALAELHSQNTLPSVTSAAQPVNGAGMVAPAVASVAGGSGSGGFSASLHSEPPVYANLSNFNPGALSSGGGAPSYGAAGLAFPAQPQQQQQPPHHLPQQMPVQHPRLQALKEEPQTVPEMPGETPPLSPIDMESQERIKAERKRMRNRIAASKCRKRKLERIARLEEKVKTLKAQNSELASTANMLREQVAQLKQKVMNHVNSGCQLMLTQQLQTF
Chain of Cell division control protein 42 homolog (Homo sapiens) (P60953 whole entry, looked up): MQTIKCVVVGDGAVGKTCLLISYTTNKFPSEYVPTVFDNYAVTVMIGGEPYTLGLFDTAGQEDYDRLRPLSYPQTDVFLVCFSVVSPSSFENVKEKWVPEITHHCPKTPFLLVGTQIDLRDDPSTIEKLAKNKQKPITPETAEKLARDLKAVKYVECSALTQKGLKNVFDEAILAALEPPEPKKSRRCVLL

Question: Which Activity [1] does the source give for `CN[C@@H](C)C(=O)NC(C(=O)N1CCC[C@H]1C(=O)N[C@H](C(=O)OC)C(c1ccccc1)c1ccccc1)C1CCCCC1` (single isomer, unassigned) here?
Answer: inactive

Question: How did the Activity [1] turn out when `CN[C@@H](C)C(=O)N[C@H](C(=O)N1CCC[C@H]1C(=O)N[C@H](C(=O)NCCOCCOCCOCCOCCOCCCCCCCl)C(c1ccccc1)c1ccccc1)C1CCCCC1` (H-[NMeA][Chg]P[Dip]-X2) was run?
Answer: inactive

Question: What about the Activity [2] of the same molecule?
Answer: Active

Question: What about the Activity (HEK293 [3]) of the same molecule?
Answer: Active

Question: And the Activity [4]?
Answer: Active

Question: What about the Activity (HEK293 [5]) of the same molecule?
Answer: Active

Question: `NCCOCCOCCOCCCCCCCl` was tested. Which Activity [1] did it give?
Answer: inactive

Question: Which results are given for `CC(C)C[C@H](NC(=O)[C@@H](O)[C@H](N)Cc1ccccc1)C(=O)NCCOCCOCCOCCOCCOCCCCCCCl`?
Answer: Activity [6]: Active; TIME [7]: 21 h

Question: Which results are given for `CC(C)C[C@H](NC(=O)[C@@H](O)[C@H](N)Cc1ccccc1)C(=O)NCCOCCOCCOCCCCCCCl`?
Answer: Activity [6]: Active; TIME [7]: 21 h

Question: With `CN[C@@H](C)C(=O)N[C@H](C(=O)N1CCC[C@H]1C(=O)N[C@H](C(=O)NCCOCCOCCOCCCCCCCl)C(c1ccccc1)c1ccccc1)C1CCCCC1` (H-[NMeA][Chg]P[Dip]-X1) as the molecule, how does the Activity [8] read?
Answer: Dose-dependent effect

Question: What about the Activity [2] of the same molecule?
Answer: Active

Question: And the Activity (HEK293 [3])?
Answer: Active

Question: And the Activity [4]?
Answer: inactive

Question: And the Activity [9]?
Answer: inactive

Question: What about the Activity (HEK293 [5]) of the same molecule?
Answer: Active

Question: With `CC(C)C[C@H](NC(=O)[C@@H](O)[C@H](N)Cc1ccccc1)C(=O)NCCOCCOCCOCCOCCOCCOCCCCCCCl` as the molecule, how does the Activity [6] read?
Answer: Active

Question: And the TIME [7]?
Answer: 21 h

Question: Which results are given for `CC(C)C[C@H](NC(=O)[C@@H](O)[C@H](N)Cc1ccccc1)C(=O)NCCOCCOCCOCCOCCCCCCCl`?
Answer: Activity [6]: Active; Activity [10]: Active; TIME [7]: 21 h; Activity [11]: inactive
